Measured values: US7498349B2, “Biaryl compounds having anti-infective activity” (Genesoft Pharmaceuticals, Inc., priority 2002, dated 2009)
In brackets after ≈: the same amount, converted by molar mass.

Experiments:
C. albicans ATCC 38247 = test: MIC, antifungal assay; format: cell-based, Candida albicans; conditions: for Minimum Inhibitory Concentration (MIC): C. albicans ATCC 38247
E. coli ATCC 25922 = test: MIC, NCCLS broth microdilution assay; format: cell-based, Escherichia coli; conditions: for Minimum Inhibitory Concentration (MIC): E. coli ATCC 25922
S. aureus ATCC 13709 = test: MIC, NCCLS broth microdilution assay; format: cell-based, Staphylococcus aureus; conditions: for Minimum Inhibitory Concentration (MIC): S. aureus ATCC 13709, methicillin sensitive strain (MSSA)
B. cereus ATCC 11778 = test: MIC, NCCLS broth microdilution assay; format: cell-based, Bacillus cereus; conditions: for Minimum Inhibitory Concentration (MIC): B. cereus ATCC 11778
S. pneumoniae ATCC 49619 = test: MIC, NCCLS broth microdilution assay; format: cell-based, Streptococcus pneumoniae; conditions: for Minimum Inhibitory Concentration (MIC): S. pneumoniae ATCC 49619
[1] = test system: S. epidermidis ATCC 12228; test: MIC, NCCLS broth microdilution assay; format: cell-based, Staphylococcus epidermidis
Source text: In vitro biological activity data were collected for a variety of microorganisms, including Bacillus cereus (ATCC 11778), Staphylococcus aureus (ATCC 33591; ATCC 27660, a methicillin resistant strain (MRSA); ATCC 13709, a methicillin sensitive strain (MSSA)), Escherichia coli (ATCC 25922), Enterococcus faecalis (ATCC 29212), Streptococcus pneumoniae (ATCC 49619; ATCC 51422, a penicillin resistant strain (PRSP)), Enterococcus faecium (ATCC 51559, a vancomycin resistant strain (VRE)), and Staphylococcus epidermidis (ATCC 12228).
The minimal inhibition concentration (MIC) of these compounds was determined using the National Committee for Clinical Laboratory Standards (NCCLS) broth microdilution assay in microtiter plates, as set forth in: (1) the guidelines of the National Committee for Clinical Laboratory Standards (NCCLS) Document M7-A4 (NCCLS, 1997); (2) the guidelines of the National Committee for Clinical Laboratory Standards (NCCLS) Document M11-A4 (NCCLS, 1997); and (3) the guidelines and reference method of the National Committee for Clinical Laboratory Standards (NCCLS) Document M27 -T (NCCLS, 1995).

S. aureus ATCC 27660 = test: MIC, NCCLS broth microdilution assay; format: cell-based, Staphylococcus aureus; conditions: for Minimum Inhibitory Concentration (MIC): S. aureus ATCC 27660, methicillin resistant strain (MRSA)
E. faecalis ATCC 29212 = test: MIC, NCCLS broth microdilution assay; format: cell-based, Enterococcus faecalis; conditions: for Minimum Inhibitory Concentration (MIC): E. faecalis ATCC 29212
S. aureus ATCC 33591 = test: MIC, NCCLS broth microdilution assay; format: cell-based, Staphylococcus aureus; conditions: for Minimum Inhibitory Concentration (MIC): S. aureus ATCC 33591

O=C(Nc1ccc(-c2cc3ccccc3o2)nc1)c1ccc(Cl)cc1NCCN1CCNCC1 [Compound A-42]
Minimum Inhibitory Concentration (MIC) (C. albicans ATCC 38247): >32 µg/mL
Minimum Inhibitory Concentration (MIC) (E. coli ATCC 25922): >32 µg/mL
Minimum Inhibitory Concentration (MIC) (S. aureus ATCC 13709): ++ (4 < MIC < 12)
Minimum Inhibitory Concentration (MIC) (B. cereus ATCC 11778): ++ (4 < MIC < 12)
Minimum Inhibitory Concentration (MIC) (S. pneumoniae ATCC 49619): + (12 ≦ MIC ≦ 32)
Minimum Inhibitory Concentration (MIC) [1]: ++ (4 < MIC < 12)
Minimum Inhibitory Concentration (MIC) (S. aureus ATCC 27660): ++ (4 < MIC < 12)
Minimum Inhibitory Concentration (MIC) (E. faecalis ATCC 29212): ++ (4 < MIC < 12)

O=C(Nc1ccc(-c2cc3ccccc3s2)nc1)c1cccnc1NCCN1CCNCC1 [Compound A-73]
Minimum Inhibitory Concentration (MIC) (C. albicans ATCC 38247): >32 µg/mL
Minimum Inhibitory Concentration (MIC) (E. coli ATCC 25922): >32 µg/mL
Minimum Inhibitory Concentration (MIC) (S. aureus ATCC 13709): >32 µg/mL
Minimum Inhibitory Concentration (MIC) (S. aureus ATCC 33591): >32 µg/mL
Minimum Inhibitory Concentration (MIC) (B. cereus ATCC 11778): >32 µg/mL
Minimum Inhibitory Concentration (MIC) (S. pneumoniae ATCC 49619): >32 µg/mL
Minimum Inhibitory Concentration (MIC) (S. aureus ATCC 27660): >32 µg/mL
Minimum Inhibitory Concentration (MIC) (E. faecalis ATCC 29212): >32 µg/mL

Cc1cc(NC(=O)c2cccnc2NCCCCN)ccc1-c1cc2ccccc2o1 [Compound A-29]
Minimum Inhibitory Concentration (MIC) (C. albicans ATCC 38247): + (12 ≦ MIC ≦ 32)
Minimum Inhibitory Concentration (MIC) (E. coli ATCC 25922): >32 µg/mL
Minimum Inhibitory Concentration (MIC) (S. aureus ATCC 13709): +++ (MIC ≦ 4)
Minimum Inhibitory Concentration (MIC) (S. aureus ATCC 33591): +++ (MIC ≦ 4)
Minimum Inhibitory Concentration (MIC) (B. cereus ATCC 11778): +++ (MIC ≦ 4)
Minimum Inhibitory Concentration (MIC) (S. pneumoniae ATCC 49619): + (12 ≦ MIC ≦ 32)
Minimum Inhibitory Concentration (MIC) (S. aureus ATCC 27660): +++ (MIC ≦ 4)
Minimum Inhibitory Concentration (MIC) (E. faecalis ATCC 29212): +++ (MIC ≦ 4)

Cc1cc(NC(=O)c2cccnc2NCCCN(C)C)ccc1-c1cc2ccccc2o1 [Compound A-30]
Minimum Inhibitory Concentration (MIC) (C. albicans ATCC 38247): + (12 ≦ MIC ≦ 32)
Minimum Inhibitory Concentration (MIC) (E. coli ATCC 25922): >32 µg/mL
Minimum Inhibitory Concentration (MIC) (S. aureus ATCC 13709): +++ (MIC ≦ 4)
Minimum Inhibitory Concentration (MIC) (S. aureus ATCC 33591): +++ (MIC ≦ 4)
Minimum Inhibitory Concentration (MIC) (B. cereus ATCC 11778): ++ (4 < MIC < 12)
Minimum Inhibitory Concentration (MIC) (S. pneumoniae ATCC 49619): + (12 ≦ MIC ≦ 32)
Minimum Inhibitory Concentration (MIC) (S. aureus ATCC 27660): +++ (MIC ≦ 4)
Minimum Inhibitory Concentration (MIC) (E. faecalis ATCC 29212): +++ (MIC ≦ 4)

NCCNc1cc(Cl)ccc1C(=O)Nc1ccc(-c2cc3ccccc3o2)nc1 [Compound A-45]
MIC (C. albicans ATCC 38247; Candida albicans, ATCC38247, read-out: Minimum Inhibitory Concentration (MIC)): 4 to 12 µg/mL (≈ 9.83 to 29.5 µM)
MIC (E. coli ATCC 25922; Escherichia coli, ATCC25922, read-out: Minimum Inhibitory Concentration (MIC)): > 32 µg/mL
MIC (S. aureus ATCC 13709; Staphylococcus aureus, ATCC 13709 / MSSA, read-out: Minimum Inhibitory Concentration (MIC)): < 4 µg/mL
MIC (S. aureus ATCC 33591; Staphylococcus aureus, ATCC33591, read-out: Minimum Inhibitory Concentration (MIC)): < 4 µg/mL
MIC (B. cereus ATCC 11778; Bacillus cereus, ATCC11778, read-out: Minimum Inhibitory Concentration (MIC)): 4 to 12 µg/mL (≈ 9.83 to 29.5 µM)
MIC (S. pneumoniae ATCC 49619; Streptococcus pneumoniae, ATCC49619, read-out: Minimum Inhibitory Concentration (MIC)): 12 to 32 µg/mL (≈ 29.5 to 78.6 µM)
MIC (S. aureus ATCC 27660; Staphylococcus aureus, ATCC 27660 / MRSA, read-out: Minimum Inhibitory Concentration (MIC)): < 4 µg/mL
MIC (E. faecalis ATCC 29212; Enterococcus faecalis, ATCC29212, read-out: Minimum Inhibitory Concentration (MIC)): 4 to 12 µg/mL (≈ 9.83 to 29.5 µM)

NCCCCNc1snc(C(=O)Nc2ccc(-c3cc4ccccc4o3)nc2)c1Cl [Compound A-37]
Minimum Inhibitory Concentration (MIC) (C. albicans ATCC 38247): + (12 ≦ MIC ≦ 32)
Minimum Inhibitory Concentration (MIC) (E. coli ATCC 25922): >32 µg/mL
Minimum Inhibitory Concentration (MIC) (S. aureus ATCC 13709): +++ (MIC ≦ 4)
Minimum Inhibitory Concentration (MIC) (S. aureus ATCC 33591): ++ (4 < MIC < 12)
Minimum Inhibitory Concentration (MIC) (B. cereus ATCC 11778): >32 µg/mL
Minimum Inhibitory Concentration (MIC) (S. pneumoniae ATCC 49619): >32 µg/mL
Minimum Inhibitory Concentration (MIC) (S. aureus ATCC 27660): +++ (MIC ≦ 4)
Minimum Inhibitory Concentration (MIC) (E. faecalis ATCC 29212): ++ (4 < MIC < 12)

O=C(Nc1ccc(-c2cc3ccccc3o2)cc1)c1ccc(Cl)cc1NCCN1CCNCC1 [Compound A-26]
Minimum Inhibitory Concentration (MIC) (C. albicans ATCC 38247): >32 µg/mL
Minimum Inhibitory Concentration (MIC) (E. coli ATCC 25922): >32 µg/mL
Minimum Inhibitory Concentration (MIC) (S. aureus ATCC 13709): +++ (MIC ≦ 4)
Minimum Inhibitory Concentration (MIC) (S. aureus ATCC 33591): ++ (4 < MIC < 12)
Minimum Inhibitory Concentration (MIC) (B. cereus ATCC 11778): + (12 ≦ MIC ≦ 32)
Minimum Inhibitory Concentration (MIC) (S. pneumoniae ATCC 49619): + (12 ≦ MIC ≦ 32)
Minimum Inhibitory Concentration (MIC) (S. aureus ATCC 27660): ++ (4 < MIC < 12)
Minimum Inhibitory Concentration (MIC) (E. faecalis ATCC 29212): ++ (4 < MIC < 12)

CN1CCN(CCNc2snc(C(=O)Nc3ccc(-c4cc5ccccc5[nH]4)cc3)c2Cl)CC1 [Compound A-61]
Minimum Inhibitory Concentration (MIC) (C. albicans ATCC 38247): +++ (MIC ≦ 4)
Minimum Inhibitory Concentration (MIC) (E. coli ATCC 25922): >32 µg/mL
Minimum Inhibitory Concentration (MIC) (S. aureus ATCC 13709): >32 µg/mL
Minimum Inhibitory Concentration (MIC) (S. aureus ATCC 33591): >32 µg/mL
Minimum Inhibitory Concentration (MIC) (B. cereus ATCC 11778): >32 µg/mL
Minimum Inhibitory Concentration (MIC) (S. pneumoniae ATCC 49619): >32 µg/mL
Minimum Inhibitory Concentration (MIC) (S. aureus ATCC 27660): >32 µg/mL
Minimum Inhibitory Concentration (MIC) (E. faecalis ATCC 29212): >32 µg/mL

O=C(Nc1ccc(-c2cc3ccccc3o2)cc1)c1cccnc1NCCCNC1CCCCC1 [Compound A-12]
Minimum Inhibitory Concentration (MIC) (C. albicans ATCC 38247): + (12 ≦ MIC ≦ 32)
Minimum Inhibitory Concentration (MIC) (E. coli ATCC 25922): >32 µg/mL
Minimum Inhibitory Concentration (MIC) (B. cereus ATCC 11778): + (12 ≦ MIC ≦ 32)
Minimum Inhibitory Concentration (MIC) (S. pneumoniae ATCC 49619): ++ (4 < MIC < 12)
Minimum Inhibitory Concentration (MIC) [1]: + (12 ≦ MIC ≦ 32)
Minimum Inhibitory Concentration (MIC) (E. faecalis ATCC 29212): ++ (4 < MIC < 12)

O=C(Nc1ccc(-c2cc3ccccc3o2)nc1)c1ccc(Cl)cc1NCCN1CCCC1 [Compound A-43]
Minimum Inhibitory Concentration (MIC) (C. albicans ATCC 38247): >32 µg/mL
Minimum Inhibitory Concentration (MIC) (E. coli ATCC 25922): >32 µg/mL
Minimum Inhibitory Concentration (MIC) (S. aureus ATCC 13709): ++ (4 < MIC < 12)
Minimum Inhibitory Concentration (MIC) (S. aureus ATCC 33591): ++ (4 < MIC < 12)
Minimum Inhibitory Concentration (MIC) (B. cereus ATCC 11778): ++ (4 < MIC < 12)
Minimum Inhibitory Concentration (MIC) (S. pneumoniae ATCC 49619): + (12 ≦ MIC ≦ 32)
Minimum Inhibitory Concentration (MIC) (S. aureus ATCC 27660): ++ (4 < MIC < 12)
Minimum Inhibitory Concentration (MIC) (E. faecalis ATCC 29212): ++ (4 < MIC < 12)

Cc1cc(NC(=O)c2cccnc2NCCN2CCCCC2)ccc1-c1cc2ccccc2o1 [Compound A-27]
Minimum Inhibitory Concentration (MIC) (C. albicans ATCC 38247): ++ (4 < MIC < 12)
Minimum Inhibitory Concentration (MIC) (E. coli ATCC 25922): >32 µg/mL
Minimum Inhibitory Concentration (MIC) (S. aureus ATCC 13709): +++ (MIC ≦ 4)
Minimum Inhibitory Concentration (MIC) (S. aureus ATCC 33591): +++ (MIC ≦ 4)
Minimum Inhibitory Concentration (MIC) (B. cereus ATCC 11778): ++ (4 < MIC < 12)
Minimum Inhibitory Concentration (MIC) (S. pneumoniae ATCC 49619): + (12 ≦ MIC ≦ 32)
Minimum Inhibitory Concentration (MIC) (S. aureus ATCC 27660): +++ (MIC ≦ 4)
Minimum Inhibitory Concentration (MIC) (E. faecalis ATCC 29212): +++ (MIC ≦ 4)

NCCNc1snc(C(=O)Nc2ccc(-c3cc4ccccc4o3)nc2)c1Cl [Compound A-38]
Minimum Inhibitory Concentration (MIC) (C. albicans ATCC 38247): + (12 ≦ MIC ≦ 32)
Minimum Inhibitory Concentration (MIC) (E. coli ATCC 25922): >32 µg/mL
Minimum Inhibitory Concentration (MIC) (S. aureus ATCC 13709): +++ (MIC ≦ 4)
Minimum Inhibitory Concentration (MIC) (S. aureus ATCC 33591): +++ (MIC ≦ 4)
Minimum Inhibitory Concentration (MIC) (B. cereus ATCC 11778): +++ (MIC ≦ 4)
Minimum Inhibitory Concentration (MIC) (S. pneumoniae ATCC 49619): >32 µg/mL
Minimum Inhibitory Concentration (MIC) (S. aureus ATCC 27660): +++ (MIC ≦ 4)
Minimum Inhibitory Concentration (MIC) (E. faecalis ATCC 29212): +++ (MIC ≦ 4)
